In series [1] the test system is O. volvulus pre-adult L5. Kind of series: Ov L5 viability by endpoint MTT assay. In kind it is cell-based, Onchocerca volvulus. The following applies: 1 µM. On the procedure:
Briefly, Ov L3 larvae were cultured to the pre-adult/L5 stage in vitro as described by Voronin et al., 2019 [45]. Once larvae reached the L5 stage (after at least 70 days in culture), 8–10 Ov L5 were moved to new transwell inserts in a 24-well plate containing 0.5 mL Ov L4-CMS media seeded with a 3 × 10^4/well Human Umbilical Vein Endothelial Cells (HUVEC) monolayer. Duplicate wells were treated with 1 and/or 10 µM of compound. Ov L5 were exposed to compounds for 14 days (exchanged 50% of media with fresh compound every two days) and then cultured with new media without compound, exchanging 50% of media every 2–3 days, up to day 36. Control Ov L5 were treated with 0.05% DMSO. […] Motility was assessed visually and ranked on a 0–100% scale every 2–3 days over the course of the assay. At the end of the motility assay, Ov L5 viability was measured by 3-(4,5-dimethylthiazol-2-yl)-2,5-diphenyltetrazolium bromide (MTT) assay. Ov L5 were incubated with 0.1% MTT in PBS at 37 °C for 1 h then visually inspected for blue coloration indicating MTT reduction. Worms were considered dead if <50% of the worm was stained blue, and worms were considered alive if >50% of the worm was stained blue.

The subject of the next series is O. ochengi adult males. Kind of series: O. ochengi adult male motility assay. In kind it is cell-based. The settings on record: Onchocerca ochengi, 120 h; read-out: O. ochengi Adult Males Inhibition of Motility Day 5 IC50. The text has this: (§1) As humans are the only hosts for O. volvulus which are unavailable for screening, drug discovery relies on the surrogate filarial parasites Brugia spp. and cattle Onchocerca spp. Prioritized compounds from the Brugia worm screens were further tested with female and male adult O. ochengi as well as O. ochengi and L. loa mf.
(§2) For these assays, O. ochengi adults were extracted from the subcutaneous nodules of infected cow skins purchased from the local slaughterhouse (Douala, Littoral Region, Cameroon) and incubated in 4 mL complete culture media comprised of RPMI-1640 (Sigma-Aldrich), 5% newborn calf serum, 200 units/mL penicillin, 200 μg/mL streptomycin and 2.5 μg/mL amphotericin B (Sigma-Aldrich) in 12-well plates overnight to validate sterility prior to the assays. Four to eight O. ochengi adult masses were treated individually the following day with a serial dilution of each compound, and controls were treated with 1% DMSO. While in culture, the male worms normally egress from the nodules into the surrounding media and thus can be monitored in parallel for motility. The O. ochengi adult masses were incubated at 37 °C with 5% CO2 for the duration of the assay. Male motility within each well was visually scored every day and over 5 days after compound addition, and female viability within the nodules was assessed by MTT after 7 days as previously described. The O. ochengi adult masses containing female worms were individually placed in wells of a 48-well plate with 0.5 mL of 0.5 mg/mL MTT in PBS and incubated at 37 °C for 30 min. Female viability was visually rated by the degree of formazan production (live worms have blue coloration) in the female worm within the treated nodule versus control worm masses. […] Prism 4.0 for Windows was used to calculate IC50s.

The next series concerns O. ochengi adult females. The series is described as follows: O. ochengi adult female viability (MTT) assay. The settings on record: Onchocerca ochengi, 168 h; Day 7, MTT; read-out: O. ochengi Adult Females Inhibition of Survival Day 7 IC50. In kind it is cell-based.
Source text: as §1
as §2, with “min.” for “min. Female viability was visually rated by the degree of formazan production (live worms have blue coloration) in the female worm within the treated nodule versus control worm masses.”

Series [2] is described as follows: Gerbil liver microsome stability assay. It is filed as in vitro ADME. On the procedure:
Microsomal stability was tested using 1 µM of each test compound in a 96-well plate containing 0.5 mg/mL gerbil liver microsomes, 1 mM NADPH and/or UDPGA with alamethicin in a buffer of 100 mM potassium phosphate with 3 mM magnesium chloride at pH 7.4. Verapamil was used as a positive control. Reactions were incubated at 37 °C, and 100% acetonitrile with 0.1% formic acid was added at 0, 15, 30 and 60 min timepoints to stop the reaction. Samples were then separated over a Waters Atlantis T3 dC18 reverse phase HPLC column with 0.1% formic acid in water and 0.1% formic acid in acetonitrile. Samples were analyzed using an AB Sciex API 4000 LC–MS/MS.
Background: Liver microsomes are a subcellular fraction often used to study metabolism.

The subject of series [3] is Brugia pahangi adult females. Kind of series: Transmission electron microscopy of B. pahangi adult females from treated gerbils. In kind it is in vivo. The following applies: females from gerbils treated with 1 mg/kg. The method, then:
B. pahangi adult females recovered from gerbils treated with 1 mg/kg THP and analog 06 were prepared as above except worms were cut into approximately 5 mm long pieces taken from the center of the worm. Pieces were washed for one hour in 0.1 M sodium cacodylate followed by post-fixation in 1% osmium tetroxide for 1 h and again washed in the same buffer for another hour. Sample pieces were dehydrated using an increasing concentration of ethanol and resin (Durcupan, by Fluka) and transitioned using propylene oxide. Samples were left overnight in pure resin at 4 °C. Samples pieces were embedded using Beem capsules (Electron Microscopy Sciences) and cured at 60 °C overnight. All reagents were purchased from Electron Microscopy Sciences.
Blocks were trimmed and sectioned using a diamond knife on a Sorvall MT-6000 ultramicrotome, collected on formvar coated 1 mm slot grids and contrasted using uranyl acetate and lead citrate. Grids were imaged on a Philips CM100 transmission electron microscope at 80 kV and images were collected using a Gatan Orius imaging system.

Series [4] has as its system O. volvulus pre-adult L5. The series is described as follows: O. volvulus pre-adult (Ov L5) motility assay. It is filed as cell-based. The following applies: Onchocerca volvulus, 504 h; on Day 21; read-out: O. volvulus L5 Inhibition of Motility IC50.
Series [5] has as its system Brugia pahangi adult females. Kind of series: In vitro motility assay with adult female Brugia pahangi (Worminator).

SMILES strings stand for the structures. pIC50: −log10 of the molar value. Some results are limits rather than exact numbers.

Turning to `Cc1ccc2c(ccc(/C=C/c3c(C)nn(-c4ccccc4)c3C)[n+]2C)c1.[I-]` [Analog 06, 2-[(E)-2-(3,5-dimethyl-1-phenyl-1H-pyrazol-4-yl)ethenyl]-1,6-dimethylquinolin-1-ium iodide], in the series on O. volvulus pre-adult L5 [1], the “O. volvulus L5 % inhibition of viability Day 37 (MTT assay)” value is 88%. The negative logarithm of the IC50 (pIC50) with O. ochengi adult males is 5.56; in the series on O. ochengi adult females it was 5.52; in the series with O. volvulus pre-adult L5 [4], 6.66; in series [5] (Brugia pahangi, 72 h, read-out: Brugia Adult Females Inhibition of Motility Day 3 IC50), 6.13. In series [2] (gerbil liver microsomes), this compound showed a CLint of 0.933 µL/min/mg Protein. The half-life at 1 µM in series [2] (pH 7.4, 1 µM compound, 0.5 mg/mL microsomes, read-out: Gerbil Liver Microsome T1/2) was determined as 24.7 h. In addition, the “Ultrastructure of gonads / developing microfilariae of female worms (TEM)” value in series [3] (1 mg/kg) was “more severe effect on the gonads”; in series [3] (listed as 06, 1 mg/kg) it was “abnormal ultrastructural phenotypes”. Besides, the “Brugia Adult Females Inhibition of Motility Day 3 @ 1 µM” value in series [5] (1 µM, Day 3, 1 µM) is 71%. The inhibition at 1 µM in series [5] (Brugia pahangi, 72 h, read-out: Brugia Adult Females Inhibition of Motility Day 3 @ 1 µM, 1 µM, Day 3) is greater than 70%. For the same compound, the “Brugia Adult Females Inhibition of Motility Day 3 IC50” value in series [5] (Day 3) was “sub-micromolar range”.

What is called pIC50 is the IC50 on a negative log10 scale, so that one unit is a factor of ten. Usually inhibition stands for the share of the control response that was lost under treatment.

The record behind these values is paper PMC8880385 (Pharmaceuticals, 2022).
